Results reported in US6900233B2, “Substituted 3-phenyl-5-alkoxy-3H-(1,3,4)-oxadiazol-2-ones, pharmaceutical composition and method for treating obesity thereof” (Aventis Pharma Deutschland GmbH, priority 2002, dated 2005).

Assays:
[1] = target: T1, pancreatic lipase (PL) (Sus scrofa, UniProt P00591); experiment: Pancreatic lipase enzyme assay (release of radiolabeled oleate from tripalmitin/glycerol tri[3H]oleate substrate); assay type: biochemical; conditions: enriched preparation from porcine pancreas, 30° C., 30 min, up to 8 concentrations
T1 construct: Enriched preparation from porcine pancreas; purchased Sigma L-0382; host or cells: porcine pancreas (tissue preparation)
T1 sequence (P00591 1-450): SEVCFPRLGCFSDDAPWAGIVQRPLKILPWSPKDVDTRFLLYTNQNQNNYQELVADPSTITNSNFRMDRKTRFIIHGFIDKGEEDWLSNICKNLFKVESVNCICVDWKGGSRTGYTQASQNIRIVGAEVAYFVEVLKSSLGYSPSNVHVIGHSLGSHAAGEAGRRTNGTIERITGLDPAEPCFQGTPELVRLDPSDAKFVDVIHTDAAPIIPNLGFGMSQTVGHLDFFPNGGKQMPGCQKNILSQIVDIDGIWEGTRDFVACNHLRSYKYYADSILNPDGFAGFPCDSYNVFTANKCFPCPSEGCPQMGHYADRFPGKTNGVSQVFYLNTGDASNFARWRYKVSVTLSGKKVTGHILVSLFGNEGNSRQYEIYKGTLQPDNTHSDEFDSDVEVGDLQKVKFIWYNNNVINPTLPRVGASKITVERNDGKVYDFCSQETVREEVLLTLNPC
Experimental: The effect of the compounds according to the invention of formula 1 was tested using the following enzyme assay system: [lacuna]
The activity of the compounds was assayed as follows:
1. Preparation of the Substrate:
80 μL of tripalmitin (85 mM in chloroform) are mixed with 5 μL of glycerol tri[9,10(n)-^3H]oleate (5 mCi/mL in toluene) in a 12 mL polypropylene vessel. Evaporation in a rotary evaporator (50° C.) and addition of 4 mL of 200 mM Tris/HCl (pH 7.6), 0.8% TX-100 are followed by ultrasound treatment of the mixture (Branson B-12 sonifier, output level 4, 3×2 min with 1 min intervals on ice) until a homogeneous milky suspension is produced.
Lipase buffer: 80 mM Tris/HCl (pH 7.6), 600 mM NaCl, 8 mM CaCl2, 8 mM benzamidine, 2 mM Pefabloc (Roche Biochemicals) (add the inhibitors only on the day of the assay)
Pancreatic lipase: Enriched preparation from porcine pancreas (Sigma order No. L-0382) dissolved in lipase buffer (100 000 units/500 μL)
5 μL of test substance (in 100% DMSO) or DMSO (control) are mixed with 10 μL of substrate and 5 μL of lipase (in this sequence) and incubated at 30° C. (Eppendorf Thermomixer, 350 min^−1) for 30 min. After addition of 325 μL of methanol/chloroform/n-heptane (10/9/7) and 105 μl of 0.1 M K2CO3, 0.1 M H3BO3 (pH 10.5 adjusted with 1 M KOH) and vigorous mixing, the phases are separated by centrifugation (8000 rpm, Eppendorf centrifuge, 4° C.). 140 μL portions of the aqueous supernatant (contains the liberated radiolabeled oleate; 70% recovery) are transferred into 20 mL scintillation vials and mixed with 6 mL of scintillation cocktail (Beckman ReadySafe). After vigorously mixing and incubating at room temperature for 2 h, the radioactivity is measured in a liquid scintillation counter (Beckman, L8008, tritium channel with quench curve, measurement time 20 min).
Substances are routinely tested in each concentration in three independent incubation mixtures each with duplicate determination after phase separation (SD<0.02). Background values (reaction under the same conditions but without lipase) are subtracted from all values (corresponds predominantly to the content of glycerol trioleate or free oleate in the substrate preparation in the aqueous phase, <5% of the radioactivity employed). The inhibition of the pancreatic lipase enzymatic activity by a test substance is determined by comparison with an uninhibited control reaction (presence of lipase=0% inhibition; absence of lipase 100% inhibition in each case after background correction). The IC50 is calculated from an inhibition plot with up to 8 concentrations of the test substance. The software package GRAPHIT (Elsevier-BIOSOFT) is used for curve fitting and IC50 determination.

Compound | melting point | IC50 [1]
CCCCCCCCCCCCCCCCOc1nn(-c2ccc(Oc3ccc(Cl)cc3)cc2)c(=O)o1 [Example 5, 5-Hexadecyloxy-3-(4-(4-chlorophenoxy)-phenyl)-3H-(1,3,4)-oxadiazol-2-one] | 52 °C | 2000 nM
CCCCCCCCOc1nn(-c2ccccc2)c(=O)o1 [Example 6, 5-Octyloxy-3-phenyl-3H-(1,3,4)-oxadiazol-2-one] | 38 °C | 900 nM
CCCCCCCCCCCCCCCCOc1nn(-c2cccc(F)c2)c(=O)o1 [Example 8, 5-Hexadecyloxy-3-(3-fluoro-phenyl)-3H-(1,3,4)-oxadiazol-2-one] | 58 °C | 
CCCCCCCCCCCCCCCCOc1nn(-c2cccc(OCc3ccccc3)c2)c(=O)o1 [Example 9, 5-Hexadecyloxy-3-(3-benzyloxy-phenyl)-3H-(1,3,4)-oxadiazol-2-one] | 65 °C | 
CCCCCCCCCCCCCCCCOc1nn(-c2ccccc2)c(=O)o1 [Example 10, 5-Hexadecyloxy-3-phenyl-3H-(1,3,4)-oxadiazol-2-one] | 63 °C | 
CCCCCCCCCCCCCCCCOc1nn(-c2ccc([N+](=O)[O-])cc2)c(=O)o1 [Example 11, 5-Hexadecyloxy-3-(4-nitro-phenyl)-3H-(1,3,4)-oxadiazol-2-one] | 72 °C | 
CCCCCCCCCCCCCCCCOc1nn(-c2ccc(OCc3ccccc3)cc2)c(=O)o1 [Example 13, 5-Hexadecyloxy-3-(4-benzyloxy-phenyl)-3H-(1,3,4)-oxadiazol-2-one] | 73 °C | 
CCCCCCCCCCCCOc1nn(-c2ccc(Cl)c(Cl)c2)c(=O)o1 [Example 30, 5-(Dodecyloxy)-3-(3,4-dichloro-phenyl)-3H-(1,3,4)-oxadiazol-2-one] | 74 °C | 
CCCCCCCCCCCCOc1nn(-c2cc(Cl)cc(Cl)c2)c(=O)o1 [Example 31, 5-(Dodecyloxy)-3-(3,5-dichloro-phenyl)-3H-(1,3,4)-oxadiazol-2-one] | 48 °C | 
CCCCCCCCCCCCOc1nn(-c2cccc(OC)c2)c(=O)o1 [Example 32, 5-(Dodecyloxy)-3-(3-methoxy-phenyl)-3H-(1,3,4)-oxadiazol-2-one] | 51 °C | 
CCCCCCCCCCCCOc1nn(-c2cccc([N+](=O)[O-])c2)c(=O)o1 [Example 34, 5-(Dodecyloxy)-3-(3-nitro-phenyl)-3H-(1,3,4)-oxadiazol-2-one] | 64 °C | 
CCCCCCCCCCCCOc1nn(-c2ccc(OCc3ccccc3)cc2)c(=O)o1 [Example 37, 5-(Dodecyloxy)-3-(4-benzyloxy-phenyl)-3H-(1,3,4)-oxadiazol-2-one] | 65 °C | 
CCCCCCCCCCCCOc1nn(-c2cccc(F)c2)c(=O)o1 [Example 38, 5-(Dodecyloxy)-3-(3-fluoro-phenyl)-3H-(1,3,4)-oxadiazol-2-one] | 44 °C | 
CCCCCCCCCCCCOc1nn(-c2ccc([N+](=O)[O-])c(OCc3ccc(F)cc3)c2)c(=O)o1 [Example 39, 5-(Dodecyloxy)-3-(3-(4-fluorobenzyloxy)-4-nitro-phenyl)-3H-(1,3,4)-oxadiazol-2-one] | 71 °C | 
CCCCCCCCCCCCOc1nn(-c2ccc([N+](=O)[O-])cc2C)c(=O)o1 [Example 40, 5-(Dodecyloxy)-3-(2-methyl-4-nitro-phenyl)-3H-(1,3,4)-oxadiazol-2-one] | 63 °C | 
CCCCCCCCCCCCOc1nn(-c2ccc([N+](=O)[O-])c(C)c2)c(=O)o1 [Example 41, 5-(Dodecyloxy)-3-(3-methyl-4-nitro-phenyl)-3H-(1,3,4)-oxadiazol-2-one] | 62 °C | 

The next lines start with the values.

melting point | IC50 [1] | Compound
127 °C |  | CC(C)CCC[C@@H](C)[C@H]1CC[C@H]2[C@@H]3CCC4C[C@@H](Oc5nn(-c6ccc(OC(F)(F)F)cc6)c(=O)o5)CC[C@]4(C)[C@H]3CC[C@]12C (some centres unmarked)
 | 30 nM | CCCCCCCCCCCCOc1nn(-c2ccc(OC(F)(F)F)cc2)c(=O)o1 [Example 1, 5-Dodecyloxy-3-(4-trifluoromethoxy-phenyl)-3H-(1,3,4)-oxadiazol-2-one]
56 °C | 250 nM | CCCCCCCCCCCCCCCCOc1nn(-c2ccc(OC(F)(F)F)cc2)c(=O)o1 [Example 2, 5-Hexadecyloxy-3-(4-trifluoromethoxy-phenyl)-3H-(1,3,4)-oxadiazol-2-one]
 | 350 nM | CCCCCCCCOc1nn(-c2ccc(OC(F)(F)F)cc2)c(=O)o1 [Example 3, 5-Octyloxy-3-(4-trifluoromethoxy-phenyl)-3H-(1,3,4)-oxadiazol-2-one]
53 °C | 2500 nM | CCCCCCCCCCCCCCCCOc1nn(-c2cccc(OC(F)(F)F)c2)c(=O)o1 [Example 4, 5-Hexadecyloxy-3-(3-trifluoromethoxy-phenyl)-3H-(1,3,4)-oxadiazol-2-one]
66 °C |  | CCCCCCCCCCCCCCCCOc1nn(-c2ccc(OC)cc2)c(=O)o1 [Example 12, 5-Hexadecyloxy-3-(4-methoxy-phenyl)-3H-(1,3,4)-oxadiazol-2-one]
38 °C | 600 nM | CCCCCCCCCCCOc1nn(-c2ccc(OC(F)(F)F)cc2)c(=O)o1 [Example 15, 5-Undecyloxy-3-(4-trifluoromethoxy-phenyl)-3H-(1,3,4)-oxadiazol-2-one]
46 °C |  | CCCCCCCCCCCCCCOc1nn(-c2ccc(OC(F)(F)F)cc2)c(=O)o1 [Example 16, 5-Tetradecyloxy-3-(4-trifluoromethoxy-phenyl)-3H-(1,3,4)-oxadiazol-2-one]
50 °C |  | CCCCCCCCCCCCCOc1nn(-c2ccc(OC(F)(F)F)cc2)c(=O)o1 [Example 17, 5-Tridecyloxy-3-(4-trifluoromethoxy-phenyl)-3H-(1,3,4)-oxadiazol-2-one]
60 °C |  | O=c1oc(OCCc2ccc(F)cc2)nn1-c1ccc(OC(F)(F)F)cc1 [Example 21, 5-(2-(4-Fluorophenyl)-ethoxy)-3-(4-trifluoromethoxy-phenyl)-3H-(1,3,4)-oxadiazol-2-one]
71 °C |  | CCCCCCCCCCCCCCCCCCCCCCOCCOc1nn(-c2ccc(OC(F)(F)F)cc2)c(=O)o1 [Example 25, 5-(Docosyloxy-ethoxy)-3-(4-trifluoromethoxy-phenyl)-3H-(1,3,4)-oxadiazol-2-one]
41 °C |  | CCCCCCCCCCCCOc1nn(-c2ccc(OC(F)(F)F)cc2)c(=O)o1 [Example 29, 5-(Dodecyloxy)-3-(4-trifluoromethoxy-phenyl)-3H-(1,3,4)-oxadiazol-2-one]
57 °C |  | CCCCCCCCCCCCOc1nn(-c2ccc(OC)cc2)c(=O)o1 [Example 33, 5-(Dodecyloxy)-3-(4-methoxy-phenyl)-3H-(1,3,4)-oxadiazol-2-one]
43 °C |  | CCCCCCCCCCCCOc1nn(-c2cccc(C(F)(F)F)c2)c(=O)o1 [Example 35, 5-(Dodecyloxy)-3-(3-trifluoromethyl-phenyl)-3H-(1,3,4)-oxadiazol-2-one]
